Data as given in patent US7015323B2, “Thiocarbamate inhibitors of alpha-4 integrins” (Genentech, Inc., priority 2003, dated 2006).

Test: Clearance and half life: pharmacokinetics after IV or PO dosing, plasma measured by LC/MS/MS
Assay type: in vivo
Details: rat; for clearance: clearance from plasma levels (LC/MS/MS, WinNonlin), PEG 400 formulation, route for the table values not stated; for half-life: half life from plasma levels (LC/MS/MS, WinNonlin), route not stated
Description: Jugular Vein Cannulation—Animals are anesthetized via IP injection using Ketamine/Xylazine/saline solution (@ 0.25 mL/kg). Animals are weighed prior to dosing of anesthetic to determine proper dosage. Sterile instruments and aseptic technique are used throughout surgery. This includes wearing a mask, clean lab coat or scrubs and sterile gloves. The ventral and dorsal neck areas are shaved and prepped with betadine and alcohol. A small skin incision is made over the jugular vein. Using blunt dissection techniques, free the intended vessel from surrounding tissue and thread two sutures under the vein. Tie the cranial suture, nick the vessel, insert the catheter, and use the distal suture to secure the catheter. Dissect a subcutaneous passage between the catheter insertion point and the intrascapular space; make a small exit hole at the nape of the neck. Then, using hemastats, pull the cannula through the passage to the dorsal neck area. Confirm that the catheter is still properly placed, flush with appropriate heparin/saline solution, and knot the distal end of the cannula. Place a suture tie around the knot, coil the cannula under the skin and close the dorsal incision, leaving the “tie” slightly exposed for ease of externalizing the catheter. Close the ventral incision. The animal should be recovered on a circulating heating blanket or equivalent and returned to its room when it's able to right itself.
Compounds are formulated with polyethylene glycol 400 (PEG) at 30% (IV) or 60% (PO).
Intravenous (IV) dosing is accomplished with a bolus injection into a lateral tail vein. Animals are restrained using a rat restrainer to minimize mis-dosings and to reduce animal stress. Individual doses are calculated based on body weights taken the morning of the dose. Oral (PO) dosing is accomplished by oral gavage using a 3½ inch stainless steel animal feeding tube. Animals are restrained by grasping gently with our hands to reduce animal stress. Individual doses are calculated based on body weights taken the morning of the dose.
Blood (approximately 0.2 mL) is collected from an jugular cannula. For occasions when the jugular cannula fails, blood is removed from the remaining lateral tail vein. The whole blood was placed into Microtainer® tubes containing K2EDTA anticoagulant. Samples are inverted several times to ensure proper mixing with anticoagulant and are stored on ice until centrifugation. Samples are centrifuged at 10,000×g for 5 minutes and plasma is transferred to 1.5 mL microcentrifuge tube. […]
All plasma samples are measured by LC/MS/MS. All pharmacokinetic parameters, clearance (CL), half life (t½), area under curve (AUC) and maximum conc (Cmax) are determined using WinNonin (version 3.2).

| Compound | clearance [mL/min/kg] | half-life [min] |
| --- | --- | --- |
| O=C(N[C@@H](Cc1ccc(OC(=S)N2CCOCC2)cc1)C(=O)O)c1ccccc1Cl [compound 1] | 23 | 61 |
| O=C(N[C@@H](Cc1ccc(OC(=O)N2CCOCC2)cc1)C(=O)O)c1ccccc1Cl [referencecarbamate] | 50 | 6 |
